This note sets out measurements from patent publication US8258309B2, “Azapeptide derivatives” (priority 2007, dated 2012).

Data set [1] can be described thus: Microsomal assay: stability in human liver microsomes. Type of data set: in vitro ADME. Particulars: for half-life at 1 μM: liver microsomes; for half-life as compared to atazanavir: human liver microsomes, first run. Here is the method:
Microsomal Assay. Human liver microsomes (20 mg/mL, pool of 50 individuals) were obtained from Xenotech LLC (Lenexa, Kans.). The incubation mixtures are prepared as follows. Stock solutions (10 mM) solutions of test Compounds 103, 106, 122 and of atazanavir were prepared in DMSO. The 10 mM stock solutions were diluted to 1 mM in acetonitrile (ACN). […] The microsome-test compound mixtures were added to wells of a 2 mL 96-well deep well polypropylene plate in triplicate. The plate was warmed to 37° C. before initiating the reactions by addition of prewarmed NADPH in 0.1 M potassium phosphate buffer, pH 7.4, containing 3 mM MgCl2. The final reaction mixture composition contained: • Liver Microsomes 0.5 mg/mL • NADPH 2 mM • Potassium Phosphate, pH 7.4 100 mM • Magnesium Chloride 3 mM • Test Compound 1.0 μM. The reaction mixtures were incubated at 37° C. and 50 μL aliquots were removed at 0, 3, 7, 12, 20, and 30 minutes and added to shallow-well 96-well plates which contained 50 μL of ice-cold ACN with internal standard to stop the reactions. The plates were stored at −20° C. for 30 minutes, after which 100 μL of water was added to the wells of the plate before centrifugation to pellet precipitated proteins. Supernatants were transferred to another 96-well plate and analyzed for amounts of parent remaining by LC-MS/MS using an Applied Biosystems API 4000 mass spectrometer. […] Data analysis was performed using Microsoft Excel Software. […] The results are shown in FIGS. 2 and 3 and in Table 3, below: […]
In general terms: Liver microsomes are a subcellular fraction often used to study metabolism.

A further data set relates to HIV-1RF. The experiment in a line: HIV anti-viral activity in CEM-SS cells infected with HIV-1 (XTT). Type of data set: cell-based. Here is the method: The HIV antiviral activity of compound of the present invention was tested in CEM-SS cells infected with HIV-1. CEM-SS cells were passaged in T-75 flasks in RPMI 1640 medium supplemented with 10% heat inactivated fetal bovine serum, 2 mmol/L L-glutamine, 100 U/mL penicillin and 100 flg/mL streptomycin prior to use in the antiviral assay. On the day preceding the assay, the cells were split 1:2 to assure they were in an exponential growth phase at the time of infection. Total cell and viability quantification was performed using a hemocytometer and Trypan Blue dye exclusion. Cell viability was greater than 95% for the cells to be utilized in the assay. The cells were resuspended at 5×10^4 cells per mL in tissue culture medium and added to the drug-containing microtiter plates in a volume of 50 μL.
The virus used for the assay was the lymphocyte-tropic virus strain HIV-IRF. The virus was obtained from the NIH AIDS Research and Reference Reagent Program and stock virus pools were produced in CEM-SS cells. A pre-titered aliquot of virus was removed from the freezer (−80° C.) and allowed to thaw slowly to room temperature in a biological safety cabinet. Virus was resuspended and diluted into tissue culture medium such that the amount of virus added to each well in a volume of 50 μL was the amount determined to yield 85 to 95% cell killing at 6 days post-infection.
Each plate contains cell control wells (cells only), virus control wells (cells plus virus), compound toxicity wells (cells plus compound only), compound colorimetric control wells (compound only) as well as experimental wells (compound plus cells plus virus). Samples were tested in triplicate with eleven half-log dilutions per compound starting at 0.1 μM of compound. Compounds 104, 120 and 122 were tested, as was atazanavir and AZT. […]
Following incubation at 37° C. in a 5% CO2 incubator, the test plates were stained with the tetrazolium dye XTT (2,3-bis(2-methoxy-4-nitro-5sulfophenyl)-5-[(phenylamino)carbonyl]-2H-tetrazolium hydroxide). XTT-tetrazolium was metabolized by the mitochondrial enzymes of metabolically active cells to a soluble formazan product, allowing rapid quantitative analysis of the inhibition of HIV induced cell killing by anti-HIV test substances. XTT solution was prepared daily as a stock of 1 mg/mL in RPMI 1640. Phenazine methosulfate (PMS) solution was prepared at 0.15 mg/mL in PBS and stored in the dark at −20° C. XTT/PMS stock was prepared immediately before use by adding 40 μL of PMS per mL of XTT solution. Fifty microliters of XTT/PMS was added to each well of the plate and the plate was reincubated for 4 hours at 37° C. Plates were sealed with adhesive plate sealers and shaken gently or inverted several times to mix the soluble formazan product and the plate was read spectrophotometrically at 450/650 nm with a Molecular Devices Vmax plate reader.
Raw data was collected from the Softmax Pro 4.6 software and imported into a Microsoft Excel 2003 spreadsheet for analysis by linear curve fit calculations.
In general terms: Formazan colour is commonly taken as a measure of viable cells.

Setting [2] is: human, pH 7.4, human liver microsomes, repeated assay (Table 3), read-out: t1/2 (min) Avg ± SD (n = 3).
[3] abbreviates: No Serum Protein Added (cell culture medium).
Where [4] appears, read: human, pH 7.4, human liver microsomes 0.5 mg/mL, 1.0 μM test compound, first run (Table 2), read-out: T1/2 ± SD.

Read-outs that look alike come from different tables or passages of the source. Bounds are passed on as bounds.

Turning to `[2H]C([2H])(c1ccc(-c2ccccn2)cc1)N(C[C@H](O)[C@H](Cc1ccccc1)NC(=O)[C@@H](NC(=O)OC)C(C([2H])([2H])[2H])(C([2H])([2H])[2H])C([2H])([2H])[2H])NC(=O)[C@@H](NC(=O)OC)C(C)(C)C` [Compound 111, 1,14-Dimethyl(3S,8S,9S,12S)-3-(1,1-dimethylethyl)-12-[(1,1-dimethylethyl)-d9]-8-hydroxy-4,11-dioxo-9-(phenylmethyl)-6-[[4-(2-pyridinyl)phenyl]methyl-d2]2,5,6,10,13-pentaazatetradecanedioate], the half-life at 1 μM in data set [1] (setting [2]) is 23.9 ± 0.3 min.

Regarding `[2H]C([2H])([2H])OC(=O)N[C@H](C(=O)N[C@@H](Cc1ccccc1)[C@@H](O)CN(NC(=O)[C@@H](NC(=O)OC)C(C)(C)C)C([2H])([2H])c1ccc(-c2ccccn2)cc1)C(C([2H])([2H])[2H])(C([2H])([2H])[2H])C([2H])([2H])[2H]` [Compound 123, 1-Methyl-14-(methyl-d3)(3S,8S,9S,12S)-3-(1,1-dimethylethyl)-12-[(1,1-dimethylethyl)-d9]-8-hydroxy-4,11-dioxo-9-(phenylmethyl)-6-[[4-(2-pyridinyl)phenyl]methyl-2]-2,5,6,10,13-pentaazatetradecanedioate], the half-life at 1 μM in data set [1] (setting [2]) stood at 23.9 ± 0.8 min.

As usually defined, the EC50 is the concentration needed to bring the measured effect to its halfway point. Take `Cc1cn([C@H]2C[C@H](N=[N+]=[N-])[C@@H](CO)O2)c(=O)[nH]c1=O` [AZT, reference compound]: the EC50 is 1 nM in the data set with HIV-1RF (+0.5 mg/mL AAGP), 2 nM in the data set with HIV-1RF (+10 mg/mL HAS), 2 nM in the data set on HIV-1RF (+AAGP + HSA) and 2 nM in the data set on HIV-1RF (setting [3]).

Consider “1,14-Dimethyl(3S,8S,9S,12S)-3-(1,1-dimethylethyl)-12-[(1,1-dimethylethyl)-d9]-8-hydroxy-4,11-dioxo-9-(phenylmethyl)-6-[[4-(2-pyridinyl)phenyl]methyl]-2,5,6,10,13-pentaazatetradecanedioate [Compound 104]”, for which the “t1/2 (min) Avg ± SD (n = 3)” value in data set [1] (human, microsomes) came to 23.3 ± 0.4 min. Further, the “fold increase of EC50 in the presence of AAGP” value with HIV-1RF (0.5 mg/mL AAGP versus cell culture medium) is recorded as “greater than 7 fold”. Further, the “fold less potent in the presence of HSA than in cell culture medium alone” value with HIV-1RF (10 mg/mL HSA versus cell culture medium) is on record as “two- to greater than three-fold less potent”. The EC50 in the data set on HIV-1RF (+0.5 mg/mL AAGP) is 2 nM; in the data set on HIV-1RF (+10 mg/mL HAS), 0.9 nM; in the data set on HIV-1RF (+AAGP + HSA) it was 4 nM; in the data set on HIV-1RF (setting [3]), below 0.3 nM. For the same compound, the “fold decrease of antiviral activity in the presence of AAGP plus HSA” value in the data set with HIV-1RF (AAGP plus HSA versus cell culture medium) is “greater than 13 fold”.

Take `[2H]C([2H])([2H])C([C@H](NC(=O)OC)C(=O)N[C@@H](Cc1ccccc1)[C@@H](O)CN(Cc1ccc(-c2ccccn2)cc1)NC(=O)[C@@H](NC(=O)OC)C(C([2H])([2H])[2H])(C([2H])([2H])[2H])C([2H])([2H])[2H])(C([2H])([2H])[2H])C([2H])([2H])[2H]` [Compound 106, 1,14-Dimethyl(3S,8S,9S,12S)-3,12-bis[(1,1-dimethylethyl)-d9]-8-hydroxy-4,11-dioxo-9-(phenylmethyl)-6-[[4-(2-pyridinyl)phenyl]methyl]-2,5,6,10,13-pentaazatetradecanedioate]: in data set [1], the “half-life as compared to atazanavir” value is on record as “increased half-life”. The “increase in half-life as compared to atazanavir” value in data set [1] (human, 1 μM, pH 7.4) is “approximately 40%”. In addition, the half-life at 1 μM is 26.1 ± 0.99 min in data set [1] (setting [4]) and 25.6 ± 0.6 min in data set [1] (setting [2]).

On to `[2H]C([2H])([2H])OC(=O)N[C@H](C(=O)N[C@@H](Cc1ccccc1)[C@@H](O)CN(Cc1ccc(-c2ccccn2)cc1)NC(=O)[C@@H](NC(=O)OC([2H])([2H])[2H])C(C([2H])([2H])[2H])(C([2H])([2H])[2H])C([2H])([2H])[2H])C(C)(C)C` [Compound 121, 1,14-Di(methyl-d3)(3S,8S,9S,12S)-3-[(1,1-dimethylethyl)-d9]-12-(1,1-dimethylethyl)-8-hydroxy-4,11-dioxo-9-(phenylmethyl)-6-[[4-(2-pyridinyl)phenyl]methyl]-2,5,6,10,13-pentaazatetradecanedioate], for which, in data set [1] (setting [2]), the half-life at 1 μM stood at 18.8 ± 1.5 min.

On to `[2H]C([2H])([2H])OC(=O)N[C@H](C(=O)N[C@@H](Cc1ccccc1)[C@@H](O)CN(Cc1ccc(-c2ccccn2)cc1)NC(=O)[C@@H](NC(=O)OC([2H])([2H])[2H])C(C)(C)C)C(C)(C)C` [Compound 103, 1,14-Di(methyl-d3)(3S,8S,9S,12S)-3,12-bis(1,1-dimethylethyl)-8-hydroxy-4,11-dioxo-9-(phenylmethyl)-6-[[4-(2-pyridinyl)phenyl]methyl]-2,5,6,10,13-pentaazatetradecanedioate], for which the “half-life as compared to atazanavir” value in data set [1] is “increased half-life”. The “% change in t1/2” value in data set [1] (human, 1 μM, pH 7.4) is recorded as −9%. The figures for the half-life at 1 μM in data set [1] (setting [4]) and in data set [1] (setting [2]) were 20.2 ± 4.22 min and 17.2 ± 0.9 min, respectively.

With `[2H]C([2H])([2H])OC(=O)N[C@H](C(=O)N[C@@H](Cc1ccccc1)[C@@H](O)CN(NC(=O)[C@@H](NC(=O)OC([2H])([2H])[2H])C(C([2H])([2H])[2H])(C([2H])([2H])[2H])C([2H])([2H])[2H])C([2H])([2H])c1ccc(-c2ccccn2)cc1)C(C([2H])([2H])[2H])(C([2H])([2H])[2H])C([2H])([2H])[2H]` [Compound 131, 1,14-Di(methyl-d3)(3S,8S,9S,12S)-3,12-bis[(1,1-dimethylethyl)-d9]-8-hydroxy-4,11-dioxo-9-(phenylmethyl)-6-[[4-(2-pyridinyl)phenyl]methyl-d2]-2,5,6,10,13-pentaazatetradecanedioate], the half-life at 1 μM in data set [1] (setting [2]) came out at 30.9 ± 1.4 min.
